Here are results for one substance from patent publication US20030129255A1, “Colloidal silver suspension for treating skin problems in tropical and decorative fish” (priority 2002, published 2003).

The subject of the data set is nitrifying bacteria. As for the experimental part:
In accordance with the present invention, a method of treating skin problems in fish comprises adding a teaspoon (5 ml) of a suspension of colloidal silver in which the concentration of silver ranges between 6 ppm and 12 ppm (parts per million) to 10 gallons of water in an aquarium every other day and then changing 50% of the water once a week, so that the water to which the fish to be treated are exposed has a silver concentration initially in the range of 0.77 ppb to 1.5 ppb (parts per billion).

Turning to colloidal silver, the “survival of nitrifying bacteria” value is “some nitrifying bacteria can survive this treatment”.
